{"source": "patent US11285132B2", "about": "“Uses of indolinone compounds” (Oncternal Therapeutics, Inc., priority 2016, dated 2022)", "key": {"A4573 cells": {"system": "A4573 cells", "assay": "Proliferation of Ewing sarcoma A4573 cell line", "format": "cell-based", "settings": "A4573 cells (EWS-FLI1 expressing Ewing sarcoma cell line); read-out: EC50, inhibition of proliferation", "source_text": "(§1) TK216 is a first in class, small molecule that directly binds EWS-FLI1 inhibiting the biological activity of ETS-family transcription factor oncoproteins and is currently under clinical investigation in patients with Ewing sarcoma."}, "MOLM-13": {"system": "MOLM-13", "assay": "72 hr CellTiter-Glo, AML cell line", "format": "cell-based", "settings": "Homo sapiens"}, "OCI-Ly18": {"system": "OCI-Ly18", "assay": "72 hr CellTiter-Glo, DLBCL cell line", "format": "cell-based", "settings": "Homo sapiens"}, "TMD-8 tumors": {"system": "TMD-8 tumors", "assay": "TMD-8 DLBCL-ABC xenograft model in nude mice", "format": "in vivo", "procedure": "The anti-tumor activity of TK216 was assessed in nude mice harboring TMD-8 tumors, a DLBCL-ABC xenograft model. TK216 was administered orally as a solution at 100 mg/kg BID for 13 days."}, "56 lymphoma cell lines": {"system": "56 lymphoma cell lines", "assay": "MTT proliferation, 56 lymphoma cell lines, 72 h", "format": "cell-based", "settings": "95% C.I.: 367-506, read-out: median IC50", "procedure": "56 lymphoma cell lines [27 diffuse large B cell lymphoma (DLBCL); 10 mantle cell lymphoma; 6 marginal zone lymphoma; 5 anaplastic large T-cell lymphoma; 8 others] were exposed to TK-216 increasing doses for 72 h using a Tecan D300e Digital Dispenser and 384 well plates. Cell proliferation was measured with MTT. In vivo study was done in NOD-SCID mice; treatments were started with approximately sc 60 mm3 tumor volumes. Sensitivity was not affected by the lymphoma cell of origin (B vs T; activated B cell type DLBCL versus germinal center type DLBCL) or MYC and TP53 status. There was a non-statistically significant trend for lower sensitivity in cell lines bearing BCL2 chromosomal translocation (P=0.07, DLBCL only; P=0.06, all cell lines)."}, "HBL-1": {"system": "HBL-1", "assay": "72 hr CellTiter-Glo, DLBCL cell line", "format": "cell-based", "settings": "HBL1"}, "Kasumi-1": {"system": "Kasumi-1", "assay": "72 hr CellTiter-Glo, AML cell line", "format": "cell-based", "settings": "Homo sapiens"}, "HL-60": {"system": "HL-60", "assay": "72 hr CellTiter-Glo, AML cell line", "format": "cell-based", "settings": "Homo sapiens"}, "two MCL cell lines": {"system": "two MCL cell lines", "assay": "Combination with lenalidomide in MCL cell lines", "format": "cell-based", "procedure": "(§2) Cell lines were exposed to YK-4-279 or TK-216, alone or in combination with other compounds, for 72 h using a Tecan D300e Digital Dispenser and 96 well plates. Cell proliferation was measured with MTT. Synergy was determined with the Chou-Talalay combination index. Gene expression profiling (GEP) was performed with the Illumina HumanHT 12 Expression BeadChips. In vivo studies were done in NOD-SCID mice and treatments started with 60 mm3 tumor volumes sc.\nSince lenalidomide is active in mantle cell lymphoma (MCL), the synergism of the combination of TK-216 and lenalidomide was confirmed also in two MCL cell lines."}, "ML-2": {"system": "ML-2", "assay": "72 hr CellTiter-Glo, AML cell line", "format": "cell-based", "settings": "Homo sapiens"}, "DLBCL cell lines [1]": {"system": "DLBCL cell lines", "assay": "Median-effect combination analysis (CalcuSyn, Chou/Talalay CI)", "format": "cell-based", "source_text": "The median-effect analysis was used to determine synergism, antagonism, or additivity of TK216 when combined with ABT199 (BCL-2i) and ACP196 (BTKi).\nThe inhibition of the EWS-FLI1 oncogene offers a promising approach for the treatment of Ewing Sarcoma, e.g., relapsed/refractory Ewing Sarcoma."}, "DLBCL cell lines [2]": {"system": "DLBCL cell lines", "assay": "Apoptosis by cleaved-Caspase 3 detection", "format": "cell-based", "settings": "various concentrations, 18 h", "procedure": "Cells were treated with various concentrations of TK216 for 18 h and apoptosis was assessed by detection of cleaved-Caspase 3."}, "TMD8": {"system": "TMD8", "assay": "Combination with other agents, MTT, Chou-Talalay combination index", "format": "cell-based", "source_text": "(§3) Y-axis: CI values. In each box-plot, the line in the middle of the box represents the median and the box extends from the 25th to the 75th percentile (interquartile range, IQ); the whiskers extend to the upper and lower adjacent values (i.e., ±1.5 IQ); outside values have been omitted from the figure. CIs for TK-216/rituximab in TMD8, TK-216/rituximab in Karpas422, TK-216/rituximab in OCI-LY-10 are not plotted due to CI values >3. Combinations tested included bendamustine, bortezomib, ibrutinib, idelalisib, lenalidomide, OTX015 (birabresib, CAS No. 202590-98-5), PQR309 (bimiralisib, CAS No. 1225037-39-7 (free base)), selinexor, venetoclax, and vincristine.\nas §2"}, "SU-DHL-4": {"system": "SU-DHL-4", "assay": "Combination with other agents, MTT, Chou-Talalay combination index", "format": "cell-based", "source_text": "as §3, §2"}, "OCI-LY-10": {"system": "OCI-LY-10", "assay": "Combination with other agents, MTT, Chou-Talalay combination index", "format": "cell-based", "source_text": "as §3, §2"}, "KARPAS422": {"system": "KARPAS422", "assay": "Combination with other agents, MTT, Chou-Talalay combination index", "format": "cell-based", "source_text": "as §3, §2"}, "[3]": {"system": "EWS-FLI1 and RNA helicase A", "assay": "EWS-FLI1 protein interaction (FLI1 immunoprecipitation in A4573)", "format": "binding", "settings": "preclinical potency model", "source_text": "as §1\nFLI1 was immunoprecipitated following treatment with TK216 or DMSO control in A4573 (see FIG. 2)."}, "OCI-Ly19": {"system": "OCI-Ly19", "assay": "72 hr CellTiter-Glo, DLBCL cell line", "format": "cell-based", "settings": "Homo sapiens"}}}
{"smiles": "O=C(CC1(O)C(=O)Nc2c(Cl)ccc(Cl)c21)c1ccc(C2CC2)cc1", "note": "(centres unmarked) [TK216, 4,7-Dichloro-3-(2-(4-cyclopropylphenyl)-2-oxoethyl)-3-hydroxyindolin-2-one]", "values": [{"measurement": "EC50", "setting": "A4573 cells", "value": "< 200", "unit": "nM"}, {"measurement": "IC50", "setting": "MOLM-13", "value": 228, "unit": "nM"}, {"measurement": "IC50", "setting": "OCI-Ly18", "value": 95, "unit": "nM"}, {"measurement": "tumor growth inhibition", "setting": "TMD-8 tumors; 100 mg/kg BID orally, 13 days, vs vehicle control", "value": 77, "unit": "%"}, {"measurement": "tolerability", "setting": "TMD-8 tumors; daily oral administration, xenograft models of DLBCL", "value": "well-tolerated"}, {"measurement": "IC50", "setting": "56 lymphoma cell lines", "value": 449, "unit": "nM"}, {"measurement": "IC50", "setting": "HBL-1", "value": 304, "unit": "nM"}, {"measurement": "IC50", "setting": "Kasumi-1", "value": 393, "unit": "nM"}, {"measurement": "IC50", "setting": "HL-60", "value": 363, "unit": "nM"}, {"measurement": "combination of TK-216 and lenalidomide", "setting": "two MCL cell lines", "value": "synergism"}, {"measurement": "IC50", "setting": "ML-2", "value": 291, "unit": "nM"}, {"measurement": "combination effect with ABT199 (BCL-2i), Combination Index", "setting": "DLBCL cell lines [1]; combined with ABT199", "value": "synergy"}, {"measurement": "combination effect with ACP196 (BTKi), Combination Index", "setting": "DLBCL cell lines [1]; combined with ACP196", "value": "synergy"}, {"measurement": "apoptosis (cleaved-Caspase 3)", "setting": "DLBCL cell lines [2]", "value": "induced apoptosis"}, {"measurement": "effect of TK216 in combination with OTX015", "setting": "TMD8; with OTX015", "value": "additive effect"}, {"measurement": "effect of TK216 in combination with PQR309", "setting": "TMD8; with PQR309", "value": "additive effect"}, {"measurement": "effect of TK216 in combination with bendamustine", "setting": "TMD8; with bendamustine", "value": "No benefit effects"}, {"measurement": "effect of TK216 in combination with bortezomib", "setting": "TMD8; with bortezomib", "value": "Synergism"}, {"measurement": "effect of TK216 in combination with ibrutinib", "setting": "TMD8; with ibrutinib", "value": "additive effect"}, {"measurement": "effect of TK216 in combination with lenalidomide", "setting": "TMD8; with lenalidomide", "value": "Synergism"}, {"measurement": "effect of TK216 in combination with lidelalisib", "setting": "TMD8; with lidelalisib", "value": "additive effect"}, {"measurement": "CI values, TK-216/rituximab", "setting": "TMD8; with rituximab, not plotted", "value": "> 3"}, {"measurement": "effect of TK216 in combination with selinexor", "setting": "TMD8; with selinexor", "value": "additive effect"}, {"measurement": "effect of TK216 in combination with venetoclax", "setting": "TMD8; with venetoclax", "value": "Synergism"}, {"measurement": "effect of TK216 in combination with vincristine", "setting": "TMD8; with vincristine", "value": "No benefit effects"}, {"measurement": "effect of TK216 in combination with OTX015", "setting": "SU-DHL-4; with OTX015", "value": "No benefit effects"}, {"measurement": "effect of TK216 in combination with PQR309", "setting": "SU-DHL-4; with PQR309", "value": "additive effect"}, {"measurement": "effect of TK216 in combination with bendamustine", "setting": "SU-DHL-4; with bendamustine", "value": "No benefit effects"}, {"measurement": "effect of TK216 in combination with idelalisib", "setting": "SU-DHL-4; with idelalisib", "value": "No benefit effects"}, {"measurement": "effect of TK216 in combination with selinexor", "setting": "SU-DHL-4; with selinexor", "value": "No benefit effects"}, {"measurement": "effect of TK216 in combination with venetoclax", "setting": "SU-DHL-4; with venetoclax", "value": "No benefit effects"}, {"measurement": "effect of TK216 in combination with vincristine", "setting": "SU-DHL-4; with vincristine", "value": "Synergism"}, {"measurement": "effect of TK216 in combination with OTX015", "setting": "OCI-LY-10; with OTX015", "value": "additive effect"}, {"measurement": "effect of TK216 in combination with PQR309", "setting": "OCI-LY-10; with PQR309", "value": "No benefit effects"}, {"measurement": "effect of TK216 in combination with bendamustine", "setting": "OCI-LY-10; with bendamustine", "value": "No benefit effects"}, {"measurement": "effect of TK216 in combination with bortezomib", "setting": "OCI-LY-10; with bortezomib", "value": "No benefit effects"}, {"measurement": "effect of TK216 in combination with ibrutinib", "setting": "OCI-LY-10; with ibrutinib", "value": "additive effect"}, {"measurement": "effect of TK216 in combination with idelalisib", "setting": "OCI-LY-10; with idelalisib", "value": "Synergism"}, {"measurement": "effect of TK216 in combination with lenalidomide", "setting": "OCI-LY-10; with lenalidomide", "value": "Synergism"}, {"measurement": "CI values, TK-216/rituximab", "setting": "OCI-LY-10; with rituximab, not plotted", "value": "> 3"}, {"measurement": "effect of TK216 in combination with selinexor", "setting": "OCI-LY-10; with selinexor", "value": "No benefit effects"}, {"measurement": "effect of TK216 in combination with venetoclax", "setting": "OCI-LY-10; with venetoclax", "value": "Synergism"}, {"measurement": "effect of TK216 in combination with vincristine", "setting": "OCI-LY-10; with vincristine", "value": "additive effect"}, {"measurement": "effect of TK216 in combination with OTX015", "setting": "KARPAS422; KARPAS422, with OTX015", "value": "Synergism"}, {"measurement": "effect of TK216 in combination with PQR309", "setting": "KARPAS422; KARPAS422, with PQR309", "value": "additive effect"}, {"measurement": "effect of TK216 in combination with bendamustine", "setting": "KARPAS422; KARPAS422, with bendamustine", "value": "additive effect"}, {"measurement": "effect of TK216 in combination with idelalisib", "setting": "KARPAS422; KARPAS422, with idelalisib", "value": "Synergism"}, {"measurement": "effect of TK216 in combination with selinexor", "setting": "KARPAS422; KARPAS422, with selinexor", "value": "additive effect"}, {"measurement": "effect of TK216 in combination with venetoclax", "setting": "KARPAS422; KARPAS422, with venetoclax", "value": "Synergism"}, {"measurement": "effect of TK216 in combination with vincristine", "setting": "KARPAS422; KARPAS422, with vincristine", "value": "additive effect"}, {"measurement": "CI values, TK-216/rituximab", "setting": "KARPAS422; Karpas422, with rituximab, not plotted", "value": "> 3"}, {"measurement": "binding between EWS-FLI1 and RNA helicase A", "setting": "[3]", "value": "blocked the binding"}, {"measurement": "IC50", "setting": "OCI-Ly19", "value": 106, "unit": "nM"}]}
